Results taken from doi:10.1101/2023.02.01.526632v1 (biorxiv, 2023).

Biological target: T1, BAP1 (Homo sapiens, UniProt Q92560)
T1 sequence (Q92560 1-729): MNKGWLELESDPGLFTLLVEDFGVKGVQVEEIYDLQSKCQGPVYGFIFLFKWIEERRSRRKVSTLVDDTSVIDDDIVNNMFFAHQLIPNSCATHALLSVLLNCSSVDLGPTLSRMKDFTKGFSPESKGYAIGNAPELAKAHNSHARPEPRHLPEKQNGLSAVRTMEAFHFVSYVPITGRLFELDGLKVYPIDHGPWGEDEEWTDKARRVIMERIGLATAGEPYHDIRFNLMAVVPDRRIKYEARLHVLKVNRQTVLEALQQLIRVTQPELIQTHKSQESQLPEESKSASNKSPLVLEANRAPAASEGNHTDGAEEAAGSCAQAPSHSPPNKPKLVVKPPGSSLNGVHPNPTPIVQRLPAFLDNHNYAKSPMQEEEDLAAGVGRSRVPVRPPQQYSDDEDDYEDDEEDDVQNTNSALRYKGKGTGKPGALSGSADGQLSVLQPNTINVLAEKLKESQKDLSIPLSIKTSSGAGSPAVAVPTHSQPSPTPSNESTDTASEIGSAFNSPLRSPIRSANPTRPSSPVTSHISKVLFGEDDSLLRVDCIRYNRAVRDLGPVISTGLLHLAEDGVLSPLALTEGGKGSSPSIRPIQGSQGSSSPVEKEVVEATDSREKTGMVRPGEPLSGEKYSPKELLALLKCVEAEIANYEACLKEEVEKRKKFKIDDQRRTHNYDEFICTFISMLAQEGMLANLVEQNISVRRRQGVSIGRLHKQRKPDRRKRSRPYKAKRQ
Experiment: competition of Biotin-Ahx-Ub-VS labelling, DIA LC-MS/MS
Assay type: biochemical
Conditions: covalent; lysate, 3 h preincubation, 0.5 μM ubiquitin probe

Q: For O=C(CCl)N1CCCC1c1ccc2c(c1)OCCO2 (stereo not shown) [compound 3, fragment 3], which IC50 is on record?
A: ~10 µM
